From US9511058B2, “Methods for using carboxamide, sulfonamide and amine compounds” (Rigel Pharmaceuticals, Inc., priority 2010, dated 2016) come the findings set out here.

The structures appear in SMILES notation. Structures can show the parent of a compound that is named as a salt.

As usually defined, the EC50 is the concentration giving half of the maximal effect.

One assay deals with AMPK. In words: AMPK activation, enzyme-linked immunosorbent assay. The format is biochemical. To be noted: compounds of Table 1 (Table 6).
`N#Cc1ccccc1CN1CCC(NC(=O)c2cc3ccc(OC4CCN(c5ccc(C(F)(F)F)cc5)CC4)cc3o2)CC1` [1-98, N-(1-(2-cyanobenzyl)piperidin-4-yl)-6-(1-(4-(trifluoromethyl)phenyl)piperidin-4-yloxy)benzofuran-2-carboxamide] gave an EC50 of less than 100 nM.

As to `O=C(NC1CCN(Cc2ccc(C(F)(F)F)cc2)CC1)c1cc2ccc(OC3CCN(c4ccc(C(F)(F)F)cc4)CC3)cc2o1` [1-99, N-(1-(4-(trifluoromethyl)benzyl)piperidin-4-yl)-6-(1-(4-(trifluoromethyl)phenyl)piperidin-4-yloxy)benzofuran-2-carboxamide], the 50% effective concentration (EC50) was less than 100 nM.

Take `O=C(NC1CCN(Cc2ccc(C(F)(F)F)cc2)CC1)c1cc2cc(OC3CCN(c4ccc(C(F)(F)F)cc4)CC3)ccc2o1` [1-100, N-(1-(4-(trifluoromethyl)benzyl)piperidin-4-yl)-5-(1-(4-(trifluoromethyl)phenyl)piperidin-4-yloxy)benzofuran-2-carboxamide]: the EC50 is less than 100 nM.

Consider `O=C(NC1CCN(Cc2cccnc2)CC1)c1cc2cc(OC3CCN(c4ccc(C(F)(F)F)cc4)CC3)ccc2o1` [1-101, N-(1-(pyridin-3-ylmethyl)piperidin-4-yl)-5-(1-(4-(trifluoromethyl)phenyl)piperidin-4-yloxy)benzofuran-2-carboxamide], for which the EC50 was less than 100 nM.

As to `CN(C(=O)c1cc2cc(OC3CCN(c4ccc(C(F)(F)F)cc4)CC3)ccc2o1)C1CCN(C(=O)OC(C)(C)C)CC1` [1-102, tert-butyl 4-(N-methyl-5-(1-(4-(trifluoromethyl)phenyl)piperidin-4-yloxy)benzofuran-2-carboxamido)piperidine-1-carboxylate], the 50% effective concentration (EC50) lay in the range of 1000 to 5000 nM.

As to `CN(C(=O)c1cc2cc(OC3CCN(c4ccc(C(F)(F)F)cc4)CC3)ccc2o1)C1CCNCC1` [1-103, N-methyl-N-(piperidin-4-yl)-5-(1-(4-(trifluoromethyl)phenyl)piperidin-4-yloxy)benzofuran-2-carboxamide], the 50% effective concentration (EC50) was in the range of 1000 to 5000 nM.

On to `CN(C(=O)c1cc2cc(OC3CCN(c4ccc(C(F)(F)F)cc4)CC3)ccc2o1)C1CCN(Cc2ccncc2)CC1` [1-104, N-methyl-N-(1-(pyridin-4-ylmethyl)piperidin-4-yl)-5-(1-(4-(trifluoromethyl)phenyl)piperidin-4-yloxy)benzofuran-2-carboxamide], for which the EC50 was in the range of 100 to 500 nM.

With `O=C(NC1CCN(S(=O)(=O)c2cccnc2)CC1)c1cc2ccc(OC3CCN(c4ccc(C(F)(F)F)cc4)CC3)cc2o1` [1-106, N-(1-(pyridin-3-ylsulfonyl)piperidin-4-yl)-6-(1-(4-(trifluoromethyl)phenyl)piperidin-4-yloxy)benzofuran-2-carboxamide], the EC50 was in the range of 100 to 500 nM.

Regarding `CN(C(=O)c1cc2cc(OC3CCN(c4ccc(C(F)(F)F)cc4)CC3)ccc2o1)C1CCN(Cc2ccc(C#N)cc2)CC1` [1-107, N-(1-(4-cyanobenzyl)piperidin-4-yl)-N-methyl-5-(1-(4-(trifluoromethyl)phenyl)piperidin-4-yloxy)benzofuran-2-carboxamide], the concentration for a half-maximal effect (EC50) was less than 100 nM.

In turn, `O=C(NC1CCN(S(=O)(=O)c2cccnc2)CC1)c1cc2ccc(OC3CCN(c4ccc(OC(F)(F)F)cc4)CC3)cc2o1` [1-108, N-(1-(pyridin-3-ylsulfonyl)piperidin-4-yl)-6-(1-(4-(trifluoromethoxy)phenyl)piperidin-4-yloxy)benzofuran-2-carboxamide] yielded an EC50 of 100 to 500 nM.

`CN(C(=O)c1cc2cc(OC3CCN(c4ccc(C(F)(F)F)cc4)CC3)ccc2o1)C1CCN(Cc2cccnc2)CC1` [1-109, N-methyl-N-(1-(pyridin-3-ylmethyl)piperidin-4-yl)-5-(1-(4-(trifluoromethyl)phenyl)piperidin-4-yloxy)benzofuran-2-carboxamide] came in with an EC50 of less than 100 nM.

Turning to `CN(C(=O)c1cc2cc(OC3CCN(c4ccc(C(F)(F)F)cc4)CC3)ccc2o1)C1CCN(Cc2cccc(C#N)c2)CC1` [1-110, N-(1-(3-cyanobenzyl)piperidin-4-yl)-N-methyl-5-(1-(4-(trifluoromethyl)phenyl)piperidin-4-yloxy)benzofuran-2-carboxamide], the EC50 was less than 100 nM.

For `CN(C(=O)c1cc2cc(OC3CCN(c4ccc(C(F)(F)F)cc4)CC3)ccc2o1)C1CCN(Cc2ccccc2C#N)CC1` [1-111, N-(1-(2-cyanobenzyl)piperidin-4-yl)-N-methyl-5-(1-(4-(trifluoromethyl)phenyl)piperidin-4-yloxy)benzofuran-2-carboxamide], the EC50 was 100 to 500 nM.

The compound `O=C(NC1CCN(C(=O)c2ccncc2)CC1)c1cc2ccc(OC3CCN(c4ccc(C(F)(F)F)cc4)CC3)cc2o1` [1-112, N-(1-isonicotinoylpiperidin-4-yl)-6-(1-(4-(trifluoromethyl)phenyl)piperidin-4-yloxy)benzofuran-2-carboxamide] came in with a half-maximal effective concentration (EC50) of less than 100 nM.

For `CC(C)(C)OC(=O)N1CCC(NC(=O)c2cc3cc(OC4CCN(Cc5ccc(C#N)cc5)CC4)ccc3o2)CC1` [1-113, tert-butyl 4-(5-(1-(4-cyanobenzyl)piperidin-4-yloxy)benzofuran-2-carboxamido)piperidine-1-carboxylate], the EC50 fell in the range of 100 to 500 nM.

`N#Cc1ccc(CN2CCC(Oc3ccc4oc(C(=O)NC5CCN(Cc6ccccc6)CC5)cc4c3)CC2)cc1` [1-114, N-(1-benzylpiperidin-4-yl)-5-(1-(4-cyanobenzyl)piperidin-4-yloxy)benzofuran-2-carboxamide]: the EC50 lay within 100 to 500 nM.

In the case of `O=C(NC1CCN(C(=O)c2ccncc2)CC1)c1cc2cc(OC3CCN(c4ccc(C(F)(F)F)cc4)CC3)ccc2o1` [1-115, N-(1-isonicotinoylpiperidin-4-yl)-5-(1-(4-(trifluoromethyl)phenyl)piperidin-4-yloxy)benzofuran-2-carboxamide], the EC50 was less than 100 nM.

Compound `NC(=O)c1ccc(CN2CCC(Oc3ccc4oc(C(=O)NC5CCN(Cc6ccccc6)CC5)cc4c3)CC2)cc1` [1-116, N-(1-benzylpiperidin-4-yl)-5-(1-(4-carbamoylbenzyl)piperidin-4-yloxy)benzofuran-2-carboxamide] came in with an EC50 of 100 to 500 nM.

`CN(C(=O)c1cc2cc(OC3CCN(c4ccc(C(F)(F)F)cc4)CC3)ccc2o1)C1CCN(Cc2ccccn2)CC1` [1-117, N-methyl-N-(1-(pyridin-2-ylmethyl)piperidin-4-yl)-5-(1-(4-(trifluoromethyl)phenyl)piperidin-4-yloxy)benzofuran-2-carboxamide]: the EC50 is less than 100 nM.

Consider `CN(C(=O)c1cc2cc(OC3CCN(c4ccc(C(F)(F)F)cc4)CC3)ccc2o1)C1CCN(C(=O)c2ccncc2)CC1` [1-118, N-(1-isonicotinoylpiperidin-4-yl)-N-methyl-5-(1-(4-(trifluoromethyl)phenyl)piperidin-4-yloxy)benzofuran-2-carboxamide], for which the EC50 was in the range of 100 to 500 nM.

`CN(C(=O)c1cc2cc(OC3CCN(c4ccc(C(F)(F)F)cc4)CC3)ccc2o1)C1CCN(Cc2ccc(C(F)(F)F)cc2)CC1` [1-119, N-methyl-N-(1-(4-(trifluoromethyl)benzyl)piperidin-4-yl)-5-(1-(4-(trifluoromethyl)phenyl)piperidin-4-yloxy)benzofuran-2-carboxamide] gave a half-maximal effective concentration (EC50) of less than 100 nM.

In turn, `CC(C)(C)OC(=O)N1CC[C@@H](NC(=O)c2cc3cc(OC4CCN(c5ccc(C(F)(F)F)cc5)CC4)ccc3o2)C1` [1-120, (R)-tert-butyl 3-(5-(1-(4-(trifluoromethyl)phenyl)piperidin-4-yloxy)benzofuran-2-carboxamido)pyrrolidine-1-carboxylate] yielded a half-maximal effective concentration (EC50) of 1000 to 5000 nM.

Turning to `O=C(N[C@@H]1CCNC1)c1cc2cc(OC3CCN(c4ccc(C(F)(F)F)cc4)CC3)ccc2o1` [1-121, (R)-N-(pyrrolidin-3-yl)-5-(1-(4-(trifluoromethyl)phenyl)piperidin-4-yloxy)benzofuran-2-carboxamide], the EC50 is more than 10000 nM.

The compound `O=C(N[C@@H]1CCN(Cc2ccncc2)C1)c1cc2cc(OC3CCN(c4ccc(C(F)(F)F)cc4)CC3)ccc2o1` [1-122, (R)-N-(1-(pyridin-4-ylmethyl)pyrrolidin-3-yl)-5-(1-(4-(trifluoromethyl)phenyl)piperidin-4-yloxy)benzofuran-2-carboxamide] returned a concentration for a half-maximal effect (EC50) of 100 to 500 nM.

The compound `O=C(N[C@@H]1CCN(Cc2cccnc2)C1)c1cc2cc(OC3CCN(c4ccc(C(F)(F)F)cc4)CC3)ccc2o1` [1-123, (R)-N-(1-(pyridin-3-ylmethyl)pyrrolidin-3-yl)-5-(1-(4-(trifluoromethyl)phenyl)piperidin-4-yloxy)benzofuran-2-carboxamide] came in with an EC50 of 100 to 500 nM.

For the compound `O=C(N[C@@H]1CCN(Cc2ccccn2)C1)c1cc2cc(OC3CCN(c4ccc(C(F)(F)F)cc4)CC3)ccc2o1` [1-124, (R)-N-(1-(pyridin-2-ylmethyl)pyrrolidin-3-yl)-5-(1-(4-(trifluoromethyl)phenyl)piperidin-4-yloxy)benzofuran-2-carboxamide], the EC50 lay within 1000 to 5000 nM.

`O=C(N[C@@H]1CCN(C(=O)c2ccncc2)C1)c1cc2cc(OC3CCN(c4ccc(C(F)(F)F)cc4)CC3)ccc2o1` [1-125, (R)-N-(1-isonicotinoylpyrrolidin-3-yl)-5-(1-(4-(trifluoromethyl)phenyl)piperidin-4-yloxy)benzofuran-2-carboxamide] returned an EC50 of 1000 to 5000 nM.

`O=C(N[C@@H]1CCN(S(=O)(=O)c2cccnc2)C1)c1cc2cc(OC3CCN(c4ccc(C(F)(F)F)cc4)CC3)ccc2o1` [1-126, (R)-N-(1-(pyridin-3-ylsulfonyl)pyrrolidin-3-yl)-5-(1-(4-(trifluoromethyl)phenyl)piperidin-4-yloxy)benzofuran-2-carboxamide] displayed a half-maximal effective concentration (EC50) of 1000 to 5000 nM.

`CC(C)(C)OC(=O)N1CC[C@H](NC(=O)c2cc3cc(OC4CCN(Cc5ccc(Cl)cc5)CC4)ccc3o2)C1` [1-127, (S)-tert-butyl 3-(5-(1-(4-chlorobenzyl)piperidin-4-yloxy)benzofuran-2-carboxamido)pyrrolidine-1-carboxylate] registered a concentration for a half-maximal effect (EC50) of 1000 to 5000 nM.

The assay is the same for the next values; noted with them: compounds of Table 1 (Table 6), formate salt.
Regarding `O=C(NC1CCN(Cc2ccncc2)CC1)c1cc2cc(OC3CCN(c4ccc(C(F)(F)F)cc4)CC3)ccc2o1` [1-105, N-(1-(pyridin-4-ylmethyl)piperidin-4-yl)-5-(1-(4-(trifluoromethyl)phenyl)piperidin-4-yloxy)benzofuran-2-carboxamide, formate salt], the EC50 is less than 100 nM.
